According to paper PMC3382171 (PLoS ONE, 2012):

How the values were obtained:
Experiment in all cases: biochemical
EF2K = target: T1, EF2K (Homo sapiens, UniProt O00418); conditions: read-out: Dundee KSS % inhibition at 1uM
T1 construct: gene EEF2K
Protocol: (§1) The METi and RAFi were screened against kinase panels (SelectScreen, Invitrogen; University of Dundee, Division of Signal Transduction Therapy, UK; Upstate Biotechnology/Millipore, Billerica, MA). In these selectivity assays the concentration of ATP was set to the Km value of ATP for each kinase tested to allow for a relative potency comparison between the various kinases. The compounds were tested at 1 µM final concentration. […] (A) Kinase selectivity screen (KSS) performed at Upstate Biotechnology. […] (B) KSS performed at University of Dundee (Division of Signal Transduction Therapy). […] (PDF) Click here for additional data file.

PBK = PBK (Homo sapiens, UniProt Q96KB5); conditions: read-out: Dundee KSS % inhibition at 1uM
Chain of PBK (Q96KB5 whole entry): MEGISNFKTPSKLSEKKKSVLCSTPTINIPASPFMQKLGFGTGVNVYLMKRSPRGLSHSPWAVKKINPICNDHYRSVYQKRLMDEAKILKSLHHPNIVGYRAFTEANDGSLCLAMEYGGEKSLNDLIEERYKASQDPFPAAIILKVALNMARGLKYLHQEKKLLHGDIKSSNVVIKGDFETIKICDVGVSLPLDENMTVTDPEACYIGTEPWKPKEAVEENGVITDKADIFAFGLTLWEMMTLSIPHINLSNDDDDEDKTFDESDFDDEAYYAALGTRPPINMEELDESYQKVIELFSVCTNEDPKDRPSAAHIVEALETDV
Protocol: as §1

SGK = target: T2, SGK (Homo sapiens, UniProt O00141); conditions: read-out: Dundee KSS % inhibition at 1uM
T2 construct: gene SGK1
Protocol: as §1

JNK/SAPK1c = target: T3, JNK/SAPK1c (Homo sapiens, UniProt P45983); conditions: read-out: Dundee KSS % inhibition at 1uM
T3 construct: gene MAPK8
Protocol: as §1

MNK1 = target: T4, MNK1 (Homo sapiens, UniProt Q9BUB5); conditions: read-out: Dundee KSS % inhibition at 1uM
T4 construct: gene MKNK1
T4 sequence (Q9BUB5 whole entry): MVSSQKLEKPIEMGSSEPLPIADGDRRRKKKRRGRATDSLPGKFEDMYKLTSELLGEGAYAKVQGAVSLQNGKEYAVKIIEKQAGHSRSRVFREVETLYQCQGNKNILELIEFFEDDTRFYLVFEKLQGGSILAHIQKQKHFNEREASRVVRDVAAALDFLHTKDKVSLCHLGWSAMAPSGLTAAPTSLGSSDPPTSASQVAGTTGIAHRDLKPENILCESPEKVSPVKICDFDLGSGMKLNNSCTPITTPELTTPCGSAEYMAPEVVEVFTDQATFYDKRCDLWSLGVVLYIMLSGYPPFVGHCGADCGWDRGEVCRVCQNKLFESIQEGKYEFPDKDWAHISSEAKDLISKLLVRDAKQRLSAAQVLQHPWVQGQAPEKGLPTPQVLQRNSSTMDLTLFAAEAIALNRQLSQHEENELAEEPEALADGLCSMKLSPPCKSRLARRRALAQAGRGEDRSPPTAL
Protocol: as §1

rat DYRK1A = rat DYRK1A (Rattus norvegicus, UniProt Q63470); conditions: read-out: Dundee KSS % inhibition at 1uM
Protocol: as §1

PRK2 = target: T5, PRK2 (Homo sapiens, UniProt Q16513); conditions: read-out: Dundee KSS % inhibition at 1uM
T5 construct: gene PKN2
Protocol: as §1

MSK1 = target: T6, MSK1 (Homo sapiens, UniProt O75582); conditions: read-out: Dundee KSS % inhibition at 1uM
T6 construct: gene RPS6KA5
T6 sequence (O75582 whole entry): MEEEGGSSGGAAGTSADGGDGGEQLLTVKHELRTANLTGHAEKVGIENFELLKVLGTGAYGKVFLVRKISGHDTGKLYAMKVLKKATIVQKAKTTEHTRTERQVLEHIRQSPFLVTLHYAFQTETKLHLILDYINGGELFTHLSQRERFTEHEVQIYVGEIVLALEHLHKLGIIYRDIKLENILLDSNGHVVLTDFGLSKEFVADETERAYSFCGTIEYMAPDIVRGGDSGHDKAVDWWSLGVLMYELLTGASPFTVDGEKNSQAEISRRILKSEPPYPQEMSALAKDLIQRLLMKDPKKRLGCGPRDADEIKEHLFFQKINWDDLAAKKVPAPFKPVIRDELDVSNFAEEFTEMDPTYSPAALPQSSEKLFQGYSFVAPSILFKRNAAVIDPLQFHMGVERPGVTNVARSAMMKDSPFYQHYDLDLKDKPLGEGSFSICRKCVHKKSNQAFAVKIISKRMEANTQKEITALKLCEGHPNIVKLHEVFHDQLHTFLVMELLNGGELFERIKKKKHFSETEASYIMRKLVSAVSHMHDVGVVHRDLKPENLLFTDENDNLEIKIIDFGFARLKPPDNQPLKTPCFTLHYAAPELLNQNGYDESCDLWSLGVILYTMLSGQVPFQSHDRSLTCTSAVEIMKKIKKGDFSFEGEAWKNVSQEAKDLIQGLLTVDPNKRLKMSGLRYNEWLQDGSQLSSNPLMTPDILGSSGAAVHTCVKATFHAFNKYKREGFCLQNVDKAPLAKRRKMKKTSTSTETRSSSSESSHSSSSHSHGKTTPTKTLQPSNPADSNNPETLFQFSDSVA
Protocol: as §1

CDK2/CyclinA = CDK2/CyclinA (Homo sapiens, UniProt P24941); conditions: read-out: Dundee KSS % inhibition at 1uM
Protocol: as §1

PKCalpha = target: T7, PKCalpha (Homo sapiens, UniProt P17252); conditions: read-out: Dundee KSS % inhibition at 1uM
T7 construct: gene PRKCA
Protocol: as §1

DYRK2 = target: T8, DYRK2 (Homo sapiens, UniProt Q92630); conditions: read-out: Dundee KSS % inhibition at 1uM
T8 sequence (Q92630 1-601): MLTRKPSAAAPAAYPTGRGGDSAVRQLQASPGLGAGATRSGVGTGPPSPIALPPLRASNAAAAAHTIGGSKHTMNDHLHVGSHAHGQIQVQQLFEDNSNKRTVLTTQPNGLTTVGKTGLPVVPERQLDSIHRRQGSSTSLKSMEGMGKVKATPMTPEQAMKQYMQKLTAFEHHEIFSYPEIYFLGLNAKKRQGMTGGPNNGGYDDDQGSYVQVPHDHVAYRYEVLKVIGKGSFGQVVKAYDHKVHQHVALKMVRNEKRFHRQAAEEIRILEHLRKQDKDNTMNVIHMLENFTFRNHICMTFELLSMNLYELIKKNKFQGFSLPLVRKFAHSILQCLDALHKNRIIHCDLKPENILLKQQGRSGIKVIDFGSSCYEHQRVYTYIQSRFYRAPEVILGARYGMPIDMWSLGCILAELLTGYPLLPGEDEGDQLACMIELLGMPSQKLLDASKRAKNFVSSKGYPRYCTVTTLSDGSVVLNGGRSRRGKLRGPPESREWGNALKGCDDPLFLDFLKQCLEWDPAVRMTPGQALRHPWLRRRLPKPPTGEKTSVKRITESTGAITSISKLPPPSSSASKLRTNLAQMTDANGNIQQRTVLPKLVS
Protocol: as §1

CHK1 = target: T9, CHK1 (Homo sapiens, UniProt O14757); conditions: read-out: Dundee KSS % inhibition at 1uM
T9 construct: gene CHEK1
Protocol: as §1

IGF1R = IGF1R (Homo sapiens, UniProt P08069); conditions: read-out: Upstate KSS % inhibition at 1uM
Protocol: as §1

PKD1 = target: T10, PKD1 (Homo sapiens, UniProt Q15139); conditions: read-out: Dundee KSS % inhibition at 1uM
T10 construct: gene PRKD1
T10 sequence (Q15139 whole entry): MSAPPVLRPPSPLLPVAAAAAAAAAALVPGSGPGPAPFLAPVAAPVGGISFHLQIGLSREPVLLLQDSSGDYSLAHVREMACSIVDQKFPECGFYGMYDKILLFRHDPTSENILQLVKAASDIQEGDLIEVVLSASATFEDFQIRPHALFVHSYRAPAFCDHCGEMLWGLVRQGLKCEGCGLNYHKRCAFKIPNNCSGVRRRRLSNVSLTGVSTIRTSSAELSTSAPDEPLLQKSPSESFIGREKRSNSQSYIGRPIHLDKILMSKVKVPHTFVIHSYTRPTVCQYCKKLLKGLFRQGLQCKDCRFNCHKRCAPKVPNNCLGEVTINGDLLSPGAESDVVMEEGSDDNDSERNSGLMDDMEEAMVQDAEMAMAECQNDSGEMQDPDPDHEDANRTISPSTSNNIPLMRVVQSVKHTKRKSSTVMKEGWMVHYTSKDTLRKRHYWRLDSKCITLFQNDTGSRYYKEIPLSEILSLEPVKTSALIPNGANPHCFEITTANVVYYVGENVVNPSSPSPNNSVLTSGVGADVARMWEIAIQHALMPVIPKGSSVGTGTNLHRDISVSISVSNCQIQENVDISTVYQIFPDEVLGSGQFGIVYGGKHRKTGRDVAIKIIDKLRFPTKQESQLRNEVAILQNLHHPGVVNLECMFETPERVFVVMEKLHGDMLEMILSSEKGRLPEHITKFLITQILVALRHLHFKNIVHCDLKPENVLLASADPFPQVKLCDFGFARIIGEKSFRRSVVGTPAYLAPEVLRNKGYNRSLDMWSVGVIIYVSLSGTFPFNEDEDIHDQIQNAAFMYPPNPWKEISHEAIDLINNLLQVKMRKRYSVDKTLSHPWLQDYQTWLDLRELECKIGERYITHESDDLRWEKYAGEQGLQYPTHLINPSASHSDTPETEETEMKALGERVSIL
Protocol: as §1

MST2 = target: T11, MST2 (Homo sapiens, UniProt Q13188); conditions: read-out: Dundee KSS % inhibition at 1uM
T11 construct: gene STK3
T11 sequence (Q13188 whole entry): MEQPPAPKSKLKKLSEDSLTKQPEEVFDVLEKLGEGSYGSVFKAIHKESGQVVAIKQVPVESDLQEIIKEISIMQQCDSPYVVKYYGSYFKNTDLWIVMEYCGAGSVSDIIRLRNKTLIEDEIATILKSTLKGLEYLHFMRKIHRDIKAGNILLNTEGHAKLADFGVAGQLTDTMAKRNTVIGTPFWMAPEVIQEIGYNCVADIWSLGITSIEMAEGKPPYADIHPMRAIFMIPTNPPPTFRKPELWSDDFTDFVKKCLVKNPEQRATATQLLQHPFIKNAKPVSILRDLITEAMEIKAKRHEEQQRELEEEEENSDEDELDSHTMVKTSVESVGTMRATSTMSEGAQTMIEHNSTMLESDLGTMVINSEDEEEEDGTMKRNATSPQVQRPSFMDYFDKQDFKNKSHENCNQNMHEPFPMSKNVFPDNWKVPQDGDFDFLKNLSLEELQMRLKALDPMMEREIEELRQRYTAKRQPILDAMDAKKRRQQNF
Protocol: as §1

MNK2 = target: T12, MNK2 (Homo sapiens, UniProt Q9HBH9); conditions: read-out: Dundee KSS % inhibition at 1uM
T12 construct: gene MKNK2
T12 sequence (Q9HBH9 whole entry): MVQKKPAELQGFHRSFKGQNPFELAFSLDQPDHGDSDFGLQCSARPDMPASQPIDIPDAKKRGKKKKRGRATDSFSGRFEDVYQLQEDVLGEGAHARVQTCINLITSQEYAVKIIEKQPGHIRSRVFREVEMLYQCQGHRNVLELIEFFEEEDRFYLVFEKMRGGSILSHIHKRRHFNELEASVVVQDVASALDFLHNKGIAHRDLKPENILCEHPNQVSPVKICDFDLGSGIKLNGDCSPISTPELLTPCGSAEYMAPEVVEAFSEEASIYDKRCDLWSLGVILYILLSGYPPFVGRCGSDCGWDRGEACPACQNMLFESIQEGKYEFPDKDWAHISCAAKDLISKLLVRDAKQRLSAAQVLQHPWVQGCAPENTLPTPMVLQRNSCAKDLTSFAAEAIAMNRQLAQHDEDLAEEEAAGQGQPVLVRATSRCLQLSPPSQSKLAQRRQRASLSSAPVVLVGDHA
Protocol: as §1

deltaPH-PKBalpha = target: T13, deltaPH-PKBalpha (Homo sapiens, UniProt P31749); conditions: read-out: Dundee KSS % inhibition at 1uM
T13 construct: gene AKT1; delta PH
Protocol: as §1

MKK1 = target: T14, MKK1 (Homo sapiens, UniProt Q02750); conditions: read-out: Dundee KSS % inhibition at 1uM
T14 construct: gene MAP2K1
T14 sequence (Q02750 whole entry): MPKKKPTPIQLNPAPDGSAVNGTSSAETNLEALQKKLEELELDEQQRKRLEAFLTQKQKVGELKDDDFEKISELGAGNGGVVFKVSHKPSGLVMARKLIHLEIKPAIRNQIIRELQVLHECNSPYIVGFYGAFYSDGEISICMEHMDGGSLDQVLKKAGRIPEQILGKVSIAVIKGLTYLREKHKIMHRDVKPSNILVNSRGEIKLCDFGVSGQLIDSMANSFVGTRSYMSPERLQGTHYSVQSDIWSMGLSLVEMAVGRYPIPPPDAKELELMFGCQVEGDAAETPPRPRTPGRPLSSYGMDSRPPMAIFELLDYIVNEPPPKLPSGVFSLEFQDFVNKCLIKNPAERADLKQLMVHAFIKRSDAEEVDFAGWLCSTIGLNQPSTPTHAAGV
Protocol: as §1

PIM3 = PIM3 (Homo sapiens, UniProt Q86V86); conditions: read-out: Dundee KSS % inhibition at 1uM
Protocol: as §1

CAMKKB = target: T15, CAMKKB (Homo sapiens, UniProt Q96RR4); conditions: read-out: Dundee KSS % inhibition at 1uM
T15 construct: gene CAMKK2
Protocol: as §1

MAPKAP-K1b = target: T16, MAPKAP-K1b (Homo sapiens, UniProt P51812); conditions: read-out: Dundee KSS % inhibition at 1uM
T16 construct: gene RPS6KA3
Protocol: as §1

SAPK4/p38d = target: T17, SAPK4/p38d (Homo sapiens, UniProt O15264); conditions: read-out: Dundee KSS % inhibition at 1uM
T17 construct: gene MAPK13
T17 sequence (O15264 whole entry): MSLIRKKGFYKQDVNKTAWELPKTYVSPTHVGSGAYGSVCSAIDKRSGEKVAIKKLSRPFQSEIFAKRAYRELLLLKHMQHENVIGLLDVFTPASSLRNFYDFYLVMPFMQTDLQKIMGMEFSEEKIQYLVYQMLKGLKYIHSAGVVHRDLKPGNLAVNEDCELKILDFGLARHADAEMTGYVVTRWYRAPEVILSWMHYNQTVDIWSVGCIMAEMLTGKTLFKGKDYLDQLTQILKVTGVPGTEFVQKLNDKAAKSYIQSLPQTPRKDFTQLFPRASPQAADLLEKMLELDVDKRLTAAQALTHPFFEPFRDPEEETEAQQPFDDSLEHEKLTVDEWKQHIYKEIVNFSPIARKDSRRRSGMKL
Protocol: as §1

CAMKKa = target: T18, CAMKKa (Homo sapiens, UniProt Q8N5S9); conditions: read-out: Dundee KSS % inhibition at 1uM
T18 construct: gene CAMKK1
Protocol: as §1

MLCK = target: T19, MLCK (Homo sapiens, UniProt Q15746); conditions: read-out: Dundee KSS % inhibition at 1uM
T19 construct: gene MYLK
Protocol: as §1

NEK2a = target: T20, NEK2a (Homo sapiens, UniProt P51955); conditions: read-out: Dundee KSS % inhibition at 1uM
T20 construct: gene NEK2; isoform A
Protocol: as §1

NEK7 = NEK7 (Homo sapiens, UniProt Q8TDX7); conditions: read-out: Dundee KSS % inhibition at 1uM
Chain of NEK7 (Q8TDX7 whole entry): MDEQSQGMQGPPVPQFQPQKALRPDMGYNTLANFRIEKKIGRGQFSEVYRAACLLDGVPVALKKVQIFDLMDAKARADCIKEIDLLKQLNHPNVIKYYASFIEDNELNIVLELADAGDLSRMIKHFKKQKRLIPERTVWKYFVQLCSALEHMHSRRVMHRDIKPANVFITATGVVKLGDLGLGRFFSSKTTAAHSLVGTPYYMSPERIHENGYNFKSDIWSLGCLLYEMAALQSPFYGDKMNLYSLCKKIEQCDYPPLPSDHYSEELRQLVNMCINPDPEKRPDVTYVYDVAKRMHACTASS
Protocol: as §1

Structure (SMILES): OCCn1cc(-c2cnc3nnn(Cc4ccc5ncccc5c4)c3n2)cn1 [METi, PF-04217903]
- inhibition at 1 µM (EF2K): -13.1%
- inhibition at 1 µM (PBK): 5.14%
- inhibition at 1 µM (SGK): 29.4%
- inhibition at 1 µM (JNK/SAPK1c): 4.04%
- inhibition at 1 µM (MNK1): -8.48%
- inhibition at 1 µM (rat DYRK1A): 2.39%
- inhibition at 1 µM (PRK2): 11.7%
- inhibition at 1 µM (MSK1): 5.55%
- inhibition at 1 µM (CDK2/CyclinA): 2.24%
- inhibition at 1 µM (PKCalpha): 14.3%
- inhibition at 1 µM (DYRK2): 14.8%
- inhibition at 1 µM (CHK1): -1.96%
- inhibition at 1 µM (IGF1R): 103%
- inhibition at 1 µM (PKD1): 6.21%
- inhibition at 1 µM (MST2): 6.16%
- inhibition at 1 µM (MNK2): 13.4%
- inhibition at 1 µM (deltaPH-PKBalpha): 3.5%
- inhibition at 1 µM (MKK1): 25.2%
- inhibition at 1 µM (PIM3): 10.7%
- inhibition at 1 µM (CAMKKB): 16.2%
- inhibition at 1 µM (MAPKAP-K1b): 24.9%
- inhibition at 1 µM (SAPK4/p38d): 4.67%
- inhibition at 1 µM (CAMKKa): 8.9%
- inhibition at 1 µM (MLCK): 9.24%
- inhibition at 1 µM (NEK2a): -7.91%
- inhibition at 1 µM (NEK7): -7.5%
